The results in this text go back to patent US20050004186A1, “MEK inhibiting compounds” (Pfizer Inc, priority 2002, published 2005).

Series [1] deals with MEK. Nature of the series: Cellular assay for measuring MEK inhibition, C26ELSA (pERK ELISA format in C26 cells). Format: cell-based, murine. The note with it: for pIC50: murine colon 26 (C26) carcinoma cells, one hour at 37 C. Here is the method:
Cellular Assay for Measuring MEK Inhibition
MEK inhibitors were evaluated by determining their ability to inhibit phosphorylation of MAP kinase (ERK) in murine colon 26 (C26) carcinoma cells. Since ERK1 and ERK2 represent the only known substrates for MEK1 and MEK2, the measurement of inhibition of ERK phosphorylation in cells provides direct read out of cellular MEK inhibition by the compounds of the invention. Detection of phosphorylation of ERK was carried out either by Western blot or ELISA format. Briefly, the assays involve treatment of exponentially growing C26 cells with varying concentrations of the test compound (or vehicle control) for one hour at 37≡ C. For Western blot assay, cells were rinsed free of compound/vehicle and lysed in a solution containing 70 mM NaCl, 50 mM glycerol phosphate, 10 mM HEPES, […], 1% Triton X-100, 1 mM Na3VO4, 100 μM PMSF, 10 μM leupeptin and 10 μM pepstatin. Supernatants were then subjected to gel electrophoresis and hybridized to a primary antibody recognizing dually phosphorylated ERK1 and ERK2. To evaluate total MAPK levels, blots were subsequently ‘stripped’ and re-probed with a 1:1 mixture of polyclonal antibodies recognizing unphosphorylated ERK1 and ERK2. For pERK ELISA assay, pERK TiterZyme Enzyme immunometric Assay kits were acquired from Assay Designs, Inc (Ann Arbor, Mich.). Briefly, cells were harvested in lysis solution containing 50 mM β-glycerophosphate, 10 mM HEPES, pH7.4, 70 mM NaCl, 2 mM EDTA and 1% SDS and protein lysates were diluted 1:15 with supplied Assay buffer prior to the execution of the assay. The subsequent steps were carried out essentially as recommended by the manufacturer.

Molecules are shown by their SMILES. pIC50: −log10 of the molar value.

The term melting point denotes the temperature, or range, at which the solid turns liquid. The pIC50 is the IC50 on a negative log10 scale, so that one unit is a factor of ten. High values mean a low IC50, low ones a high IC50. On to `C#Cc1ccc(Nc2c(-c3nnc(NCCO)o3)ccc(F)c2F)c(F)c1` [Example 140, 2-{5-[2-(4-Ethynyl-2-fluoro-phenylamino)-3,4-difluoro-phenyl]-[1,3,4]oxadiazol-2-ylamino}-ethanol], for which the melting point fell in the range of 115.9 to 116.5 °C. In addition, the pIC50 in series [1] was 8.52.

`CCc1nnc(-c2ccc(F)c(F)c2Nc2ccc(I)cc2F)o1` [Example 143, [6-(5-Ethyl-[1,3,4]oxadiazol-2-yl)-2,3-difluoro-phenyl]-(2-fluoro-4-iodo-phenyl)-amine] returned a melting point of 97 to 98 °C. The “C26ELSA % Inhibition @ 5 μM” value in series [1] (5 μM, C26 cells) is 88%.

In turn, `OCCCc1ccc(Nc2c(-c3nnc(NCCN4CCOCC4)o3)ccc(F)c2F)c(F)c1` [Example 147, 3-(4-{2,3-Difluoro-6-[5-(2-morpholin-4-yl-ethylamino)-[1,3,4]oxadiazol-2-yl]-phenylamino}-3-fluoro-phenyl)-propan-1-ol] displayed a melting point of 102 to 106 °C. This molecule showed a pIC50 in series [1] of 4.47.

Molecule `C#Cc1ccc(Nc2c(-c3nnc(NCCN4CCOCC4)o3)ccc(F)c2F)c(F)c1` [Example 148, {5-[2-(4-Ethynyl-2-fluoro-phenylamino)-3,4-difluoro-phenyl]-[1,3,4]oxadiazol-2-yl}-(2-morpholin-4-yl-ethyl)-amine] showed a melting point of 146 to 148 °C. Besides, the negative logarithm of the IC50 (pIC50) in series [1] was 7.20.

In turn, `OC[C@H](O)CNc1nnc(-c2ccc(F)c(F)c2Nc2ccc(I)cc2F)o1` [Example 150, 3-{5-[3,4-Difluoro-2-(2-fluoro-4-iodo-phenylamino)-phenyl]-[1,3,4]oxadiazol-2-ylamino}-propane-1,2 (R)-diol] had a melting point of 174 to 176 °C. Also, the pIC50 in series [1] was 7.04.

Take `CCc1ccc(Nc2c(-c3nnc(NC[C@@H](O)CO)o3)ccc(F)c2F)c(F)c1` [Example 152, 3-{5-[2-(4-Ethyl-2-fluoro-phenylamino)-3,4-difluoro-phenyl]-[1,3,4]oxadiazol-2-ylamino}-propane-1,2(R)-diol]: the melting point is 150 to 152 °C (dec.). Moreover, in series [1], the negative logarithm of the IC50 (pIC50) was 5.62.

Turning to `OCC(CO)Nc1nnc(-c2ccc(F)c(F)c2Nc2ccc(I)cc2F)o1` [Example 154, 2-{5-[3,4-Difluoro-2-(2-fluoro-4-iodo-phenylamino)-phenyl]-[1,3,4]oxadiazol-2-ylamino}-propane-1,3-diol], the melting point is 110 to 114 °C (dec.). The same molecule gave a pIC50 in series [1] of 6.96.

As to `C=Cc1ccc(Nc2c(-c3nnc(NCCN4CCOCC4)o3)ccc(F)c2F)c(F)c1` [Example 156, {5-[3,4-Difluoro-2-(2-fluoro-4-vinyl-phenylamino)-phenyl]-[1,3,4]oxadiazol-2-yl}-(2-morpholin-4-yl-ethyl)-amine], the melting point was in the range of 174 to 177 °C. The molecule further gave a pIC50 in series [1] of 6.15.
